According to patent US20070128217A1 (priority 2003, published 2007):

What was measured:
[1] = system: rabbit serum obtained by immunizing a rabbit with the SARS-CoV strain Frankfurt 1; assay type: binding; set-up: Binding of a rabbit serum to linear peptides / Binding of a rabbit serum to looped peptides / Rabbit serum linear peptides / Rabbit serum looped peptides / Binding of a rabbit serum to linear peptides of protein N of SARS-CoV Urbani (Rabbit serum linear peptides) / Binding of a rabbit serum to looped/cyclic peptides of protein N of SARS-CoV Urbani (Rabbit serum looped peptides): unit not given here
[2] = system: control sera (pooled serum of ten healthy LUMC hospital workers; commercial negative donor pooled serum from the Dutch bloodbank); assay type: binding, human; set-up: Binding of Control serum LUMC to linear peptides / Binding of Control serum Blood-bank to linear peptides / Binding of Control serum LUMC to looped peptides / Binding of Control Serum Blood-Bank to Looped peptides / Binding of Control serum LUMC to linear peptides of the protein M of SARS-CoV Urbani / Binding of Control serum Blood-bank to linear peptides of the protein M of SARS-CoV Urbani / Binding of Control serum LUMC to looped peptides of the protein M of SARS-CoV Urbani / Binding of Control Serum Blood-Bank to Looped peptides of the protein M of SARS-CoV Urbani: unit not given here
[3] = system: recombinant human anti-SARS-CoV antibody 03-018; assay type: binding; set-up: Binding of antibody 03-018 to linear peptides of the N protein of SARS-CoV Urbani / Binding of antibody 03-018 to looped/cyclic peptides of the N protein of SARS-CoV Urbani: unit not given here
[4] = system: antibodies in sera from SARS patients (sera 1a, 1b, 2, 6, 37, 62, London, SARS-yellow, SARS-green); assay type: binding, human; set-up: Binding of serum 6 to linear peptides of protein X1 of SARS-CoV Urbani / Binding of serum 37 to linear peptides of protein X1 of SARS-CoV Urbani / Binding of serum 6 to looped/cyclic peptide (PEPSCAN-ELISA) / Binding of serum 37 to looped/cyclic peptide (PEPSCAN-ELISA) / Binding of serum 37 to looped/cyclic peptides of protein X1 of SARS-CoV Urbani / Binding of serum 6 to linear peptides of protein X2 / Binding of serum 37 to linear peptides of protein X2 / Binding of serum 37 to looped/cyclic peptides of protein X2 of SARS-CoV Urbani / Binding of serum 6 to linear peptides of protein M of SARS-CoV Urbani / Binding of serum 37 to linear peptides of protein M of SARS-CoV Urbani / Binding of serum 6 to looped/cyclic peptides of protein M of SARS-CoV Urbani / Binding of serum 37 to looped/cyclic peptides of protein M of SARS-CoV Urbani / Binding of serum 6 to linear peptides of protein X3 of SARS-CoV Urbani / Binding of serum 37 to linear peptides of protein X3 of SARS-CoV Urbani / Binding of serum 37 to looped/cyclic peptides of protein X3 of SARS-CoV Urbani / Binding of serum 6 to linear peptides of protein X4 of SARS-CoV Urbani / Binding of serum 37 to linear peptides of protein X4 of SARS-CoV Urbani / Binding of serum 37 to looped/cyclic peptides of protein X4 of SARS-CoV Urbani / Binding of serum 6 to linear peptides of protein X5 of SARS-CoV Urbani / Binding of serum 37 to linear peptides of protein X5 of SARS-CoV Urbani / Binding of serum 37 to looped/cyclic peptides of protein X5 of SARS-CoV Urbani / Binding of serum 6 to linear peptides of protein N of SARS-CoV Urbani / Binding of serum 37 to linear peptides of protein N of SARS-CoV Urbani / Binding of serum 6 to linear peptide (PEPSCAN-ELISA) / Binding of serum 1a to looped/cyclic peptides of protein N of SARS-CoV Urbani / Binding of serum 1b to looped/cyclic peptides of protein N of SARS-CoV Urbani / Binding of serum 2 to looped/cyclic peptides of protein N of SARS-CoV Urbani / Binding of serum 6 to looped/cyclic peptides of protein N of SARS-CoV Urbani / Binding of serum 37 to looped/cyclic peptides of protein N of SARS-CoV Urbani / Binding of serum 62 to looped/cyclic peptides of protein N of SARS-CoV Urbani / Binding of serum London to looped/cyclic peptides of protein N of SARS-CoV Urbani / Binding of serum SARS-green to looped/cyclic peptides of protein N of SARS-CoV Urbani: unit not given here

| Sequence | Binding of a rabbit serum to linear peptides of protein N of SARS-CoV Urbani (Rabbit serum linear peptides) [1] | Binding of a rabbit serum to looped/cyclic peptides of protein N of SARS-CoV Urbani (Rabbit serum looped peptides) [1] | Binding of Control Serum Blood-Bank to Looped peptides [2] | Binding of Control serum Blood-bank to linear peptides [2] | Binding of Control serum LUMC to linear peptides [2] | Binding of Control serum LUMC to looped peptides [2] | Binding of antibody 03-018 to linear peptides of the N protein of SARS-CoV Urbani [3] | Binding of antibody 03-018 to looped/cyclic peptides of the N protein of SARS-CoV Urbani [3] | Binding of serum 1a to looped/cyclic peptides of protein N of SARS-CoV Urbani [4] | Binding of serum 1b to looped/cyclic peptides of protein N of SARS-CoV Urbani [4] | Binding of serum 2 to looped/cyclic peptides of protein N of SARS-CoV Urbani [4] | Binding of serum 6 to looped/cyclic peptides of protein N of SARS-CoV Urbani [4] | Binding of serum 37 to looped/cyclic peptides of protein N of SARS-CoV Urbani [4] | Binding of serum 62 to looped/cyclic peptides of protein N of SARS-CoV Urbani [4] | Binding of serum London to looped/cyclic peptides of protein N of SARS-CoV Urbani [4] | Binding of serum SARS-green to looped/cyclic peptides of protein N of SARS-CoV Urbani [4] | Binding of serum SARS-yellow to looped/cyclic peptides of protein N of SARS-CoV Urbani [4] | other results |
| --- | --- | --- | --- | --- | --- | --- | --- | --- | --- | --- | --- | --- | --- | --- | --- | --- | --- | --- |
| VPINTNSGPDDQIGY | 0.1 | 0.3 | 0.8 | 0.7 | 0.8 | 0.7 | 0.1 | 0.2 | 0.5 | 0.4 | 0.4 | 0.2 | 0.9 | 0.7 | 0.5 | 1.1 | 0.7 | Binding of serum 1a to linear peptides of protein N of SARS-CoV Urbani [4]: 0.3; Binding of serum 1b to linear peptides of protein N of SARS-CoV Urbani [4]: 0.2; Binding of serum 2 to linear peptides of protein N of SARS-CoV Urbani [4]: 0.2; Binding of serum 6 to linear peptides of protein N of SARS-CoV Urbani [4]: 0.2; Binding of serum 37 to linear peptides of protein N of SARS-CoV Urbani [4]: 0.8; Binding of serum 62 to linear peptides of protein N of SARS-CoV Urbani [4]: 0.7; Binding of serum London to linear peptides of protein N of SARS-CoV Urbani [4]: 0.4; Binding of serum SARS-green to linear peptides of protein N of SARS-CoV Urbani [4]: 0.4; Binding of serum SARS-yellow to linear peptides of protein N of SARS-CoV Urbani [4]: 0.5 |
| VSGKGQQQQGQTVTK | 0.2 | 0.4 | 0.7 | 1.0 | 1.4 | 0.9 | 0.1 | 0.3 | 0.9 | 0.3 | 0.5 | 0.3 | 0.5 | 0.5 | 0.5 | 0.5 | 0.6 | Binding of serum 1a to linear peptide (PEPSCAN-ELISA) [4]: 1.2; Binding of serum 1b to linear peptide (PEPSCAN-ELISA) [4]: 0.6; Binding of serum 2 to linear peptide (PEPSCAN-ELISA) [4]: 0.6; Binding of serum 6 to linear peptide (PEPSCAN-ELISA) [4]: 0.4; Binding of serum 37 to linear peptide (PEPSCAN-ELISA) [4]: 0.9; Binding of serum 62 to linear peptide (PEPSCAN-ELISA) [4]: 1.2; Binding of serum London to linear peptide (PEPSCAN-ELISA) [4]: 0.6; Binding of serum SARS-green to linear peptide (PEPSCAN-ELISA) [4]: 0.5; Binding of serum SARS-yellow to linear peptide (PEPSCAN-ELISA) [4]: 1.0 |
